Test results taken from US20180344680A1, “COMPOSITIONS AND METHODS FOR TREATMENT, AMELIORATION, AND PREVENTION OF DIABETES-RELATED SKIN ULCERS” (THE ARIZONA BOARD OF REGENTS ON BEHALF OF THE UNIVERSITY OF …, priority 2015, published 2018).

What was measured:
8-oxo-dG = experiment: Oxidative DNA damage (8-oxo-dG IHC) in wound skin tissues of STZ mice; assay type: in vivo, mouse
Source text: Diabetes mouse model and treatments. Nrf2^+/+ and Nrf2^-/- C57BL/6 mice were described previously (see, e.g., Jiang T, et al., Diabetes 59:850-860, 2010) and were housed and handled in accordance with the University of Arizona Institutional Animal Care policies. The STZ-induced diabetic model was previously described (see, e.g., Zheng H, et al., Diabetes 60:3055-3066, 2011) and only 8 week old male mice were included in this study. Briefly, three weeks after STZ injections, fasting glucose levels (FGL, 4 h fast) were measured using the AlphaTRAK system (Abbott Laboratory, North Chicago, Ill.) and mice with a FGL higher than or equal to 250 mg/dL were considered diabetic and included in the study (see, e.g., FIG. 2A and FIG. 3A for a detailed timeline). The mice (n=5-8) were then allocated randomly to each of the indicated treatment groups and received corn oil (control), 12.5 mg/kg SF or 50 mg/kg CA intraperitoneally every two days until skin tissues were harvested. One week after the treatments, the mice were anesthetized, their backs were shaved and cleaned. […] Gross wound closure was quantified by ImageJ software, and wound healing was expressed as the percentage of the original wound area that had healed. […] Morphology was assessed by hematoxylin and eosin (H&E) staining (Vector laboratory, Burlingame, Calif.). […]

NRF2 pathway = experiment: Immunoblot of NRF2 pathway in HaCaT cells under high glucose; assay type: cell-based, human; settings: HaCaT in high glucose (HG); 5 μmol/L SF or 20 μmol/L CA; 48 h
Method: Human immortalized keratinocytes HaCaT were obtained from the Arizona Cancer Center (see, e.g., Boukamp P, et al., J Cell Biol 106:761-771, 1988). Cells were grown in Dulbecco's modified Eagle's medium (DMEM) containing low glucose (LG, 5.5 mmol/L) and 10% fetal bovine serum (FBS) in an incubator at 37° C. with 5% CO2. For the experiments, the cells were starved in serum-free LG DMEM for 24 h, then either maintained in LG DMEM or switched to high glucose (HG, 25 mmol/L) DMEM for 2 days (see, e.g., Zheng H, et al., Diabetes 60:3055-3066, 2011; Lan C C, et al., Br J Dermatol 159:1103-1115, 2008). For the treatments, the cells were dosed with 5 μmol/L SF or 20 μmol/L CA.
siRNA transfections. HaCaT cells were transfected with either a non-specific, control small interfering RNA (Con-siRNA, #1027281, Qiagen, Valencia, Calif.) or an NRF2-specific siRNA (#S100657937) using the HiPerfect transfection reagent (Qiagen) according to the manufacturer's instructions. Briefly, cells were maintained in LG or HG DMEM for 2 days and then transfected with either control or NRF2 siRNA for migration, proliferation, and apoptosis experiments. For the ROS detection, cells were maintained in LG DMEM and transfected with either control or NRF2 siRNA; 24 h later, the cells were switched to HG DMEM and treated as indicated.
Cultured HaCaT cells were harvested in 1× sample buffer (50 mM Tris-HCl pH 6.8, 2% sodium dodecyl sulfate (SDS), 10% glycerol, 100 mM dithiothreitol (DTT), 0.1% bromophenol blue), boiled and sonicated. Total cell lysates were resolved by SDS-PAGE and subjected to immunoblot analyses with the indicated antibodies. For the detection of the secreted proteins TGF-β1 and MMP9, cells were incubated 24 h in serum-free media before harvesting the medium. TGF-β1 was measured using the Quantikine human TGF-β1 immunoassay kit (R&D systems; Minneapolis, Minn.) according to the manufacturer's instructions. The absorbance at 450 nm was measured using a Synergy 2 microplate reader (BioTek, Winooski, Vt.) and the amount of TGF-β1 was calculated by standard curve. MMP9 activity was evaluated by gelatin zymography as described elsewhere (see, e.g., Toth M, et al., Methods Mol Biol 878:121-135, 2012; Zhu P, et al., Exp Dermatol 21:123-129, 2012). Briefly, the supernatant was concentrated using Amicon Ultra-0.5 mL centrifugal filters (Merck Milipore, Darmstadt, Germany) (10 kDa cut off), mixed with non-reducing sample buffer and subjected to electrophoresis in 10% polyacrylamide-0.1% w/v gelatin gels. The gels were then washed in 2.5% Triton X-100 to remove SDS and incubated with developing buffer (50 mM Tris-HCl, pH 7.6, 1 μM ZnCl2 and 5 mM CaCl2) at 37° C. for 36 h. Gels were subsequently stained with 0.2% Coomassie blue and were analyzed with ImageJ.

[1] = Digital infrared thermal imaging of wounds in STZ mice; assay type: in vivo, mouse; settings: exaggerated gradient vs Con group
Method: Diabetes mouse model and treatments. […] Briefly, three weeks after STZ injections, fasting glucose levels (FGL, 4 h fast) were measured using the AlphaTRAK system (Abbott Laboratory, North Chicago, Ill.) and mice with a FGL higher than or equal to 250 mg/dL were considered diabetic and included in the study (see, e.g., FIG. 2A and FIG. 3A for a detailed timeline). The mice (n=5-8) were then allocated randomly to each of the indicated treatment groups and received corn oil (control), 12.5 mg/kg SF or 50 mg/kg CA intraperitoneally every two days until skin tissues were harvested. One week after the treatments, the mice were anesthetized, their backs were shaved and cleaned. Two wounds were made with a sterile 6 mm skin biopsy punch (Health link, Jacksonville, Fla.) and covered with 3M Tegaderm pads. The wounds were photographed using an in vivo imaging system and an infrared integrated system (IRISYS, Northampton, UK) for 14 days. Gross wound closure was quantified by ImageJ software, and wound healing was expressed as the percentage of the original wound area that had healed. The tissues were collected using an 8 mm skin biopsy punch; one half was fixed in 10% buffered formalin and embedded in paraffin while the other half was used for protein extraction. […]

Compound	oxidative DNA damage (8-oxo-dG) (8-oxo-dG)	protein levels of HO-1, AKR1C1, and NQO1 (NRF2 pathway)	protein levels of NRF2 (NRF2 pathway)	temperature gradients (ΔT) between wound area and surrounding healthy tissue [1]
O=CC=Cc1ccccc1 [CA, Cinnamaldehyde]	greatly alleviated the oxidative DNA damage	further induced	further NRF2 induction	abolished this effect
C[S@@+]([O-])CCCCN=C=S [SF, L-sulforaphane]	greatly alleviated the oxidative DNA damage	further induced	further NRF2 induction	abolished this effect
